Test results published in patent US10160748B2 (AbbVie Inc., priority 2015, dated 2018).

biological target: TNFα trimer (Homo sapiens, UniProt P01375); test: TNFα FP Competitive Binding Assay; settings: FP binding assay; 20 nM TNFα trimer, 1 nM OregonGreen488 probe; read-out: TNF IC50
Procedure, shortened: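 Compounds in 12-point 1:3 series, final top 100 μM (2.0% DMSO) or 338 μM (3.4% DMSO), displace 1 nM fluorescent probe from 20 nM TNFα trimer. After 18-24 h incubation plus 1 h rt equilibration, background-subtracted polarization measured and curves fitted with variable slope.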

Chain of TNFα trimer (P01375 77-233 limits assumed): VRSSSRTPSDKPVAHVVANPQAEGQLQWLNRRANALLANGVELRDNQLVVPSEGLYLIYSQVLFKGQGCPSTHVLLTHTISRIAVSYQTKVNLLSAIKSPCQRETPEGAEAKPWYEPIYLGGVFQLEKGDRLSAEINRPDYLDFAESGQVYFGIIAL

Question: `C[C@@H]1CN(C(=O)CO)CCN1c1ncc(-c2c(F)cc3c(=O)n(C)n(Cc4ccccc4OC(F)F)c3c2F)cn1` [Example 30] was tested. Which IC50 did it give?
Answer: The IC50 was under 1000 nM.

Question: For `CC(=O)N1CCC(O)(c2ncc(-c3ccc4c(=O)n(C)n(Cc5ccccc5OC(F)F)c4c3)cn2)CC1` [Example 32, 6-(2-(1-Acetyl-4-hydroxypiperidin-4-yl)pyrimidin-5-yl)-1-(2-(difluoromethoxy)benzyl)-2-methyl-1H-indazol-3(2H)-one], which IC50 is on record?
Answer: Its IC50 is 1000 to 10000 nM.

Question: Which IC50 does the source give for `COCc1cccc(OC(F)F)c1Cn1c2cc(-c3cnc(N4CCN5C(=O)NC[C@@H]5C4)nc3)ccc2c(=O)n1C` [Example 33, (R)-7-(5-(1-(2-(Difluoromethoxy)-6-(methoxymethyl)benzyl)-2-methyl-3-oxo-2,3-dihydro-1H-indazol-6-yl)pyrimidin-2-yl)hexahydroimidazo[1,5-a]pyrazin-3(2H)-one] here?
Answer: Its IC50 is under 1000 nM.

Question: For `CN1C[C@H]2CN(c3ncc(-c4ccc5c(=O)n(C)n(Cc6ccccc6OC(F)F)c5c4)cn3)CCN2C1=O` [Example 34, (R)-7-(5-(1-(2-(Difluoromethoxy)benzyl)-2-methyl-3-oxo-2,3-dihydro-1H-indazol-6-yl)pyrimidin-2-yl)-2-methylhexahydroimidazo[1,5-a]pyrazin-3(2H)-one], which IC50 is on record?
Answer: Its IC50 is under 1000 nM.

Question: `Cn1c(=O)c2ccc(-c3cnc(N4CCN5C(=O)N(CCO)C[C@H]5C4)nc3)cc2n1Cc1ccccc1OC(F)F` [Example 35, (R)-7-(5-(1-(2-(Difluoromethoxy)benzyl)-2-methyl-3-oxo-2,3-dihydro-1H-indazol-6-yl)pyrimidin-2-yl)-2-(2-hydroxyethyl)hexahydroimidazo[1,5-a]pyrazin-3(2H)-one] was tested. Which IC50 did it give?
Answer: Its IC50 is under 1000 nM.

Question: How did the IC50 turn out when `Cc1ccc(OC(F)F)c(Cn2c3cc(-c4cnc(N5CCN(C(=O)CO)[C@@H](C)C5)nc4)ccc3c(=O)n2C)c1` [Example 36, (S)-1-(2-(Difluoromethoxy)-5-methylbenzyl)-6-(2-(4-(2-hydroxyacetyl)-3-methylpiperazin-1-yl)pyrimidin-5-yl)-2-methyl-1H-indazol-3(2H)-one] was run?
Answer: The IC50 was under 1000 nM.

Question: Which IC50 does the source give for `Cc1ccc(C#N)c(Cn2c3cc(-c4cnc(N5CCN6C(=O)NC[C@H]6C5)nc4)ccc3c(=O)n2C)c1` [Example 37, (S)-4-Methyl-2-((2-methyl-3-oxo-6-(2-(3-oxohexahydroimidazo[1,5-a]pyrazin-7(1H)-yl)pyrimidin-5-yl)-2,3-dihydro-1H-indazol-1-yl)methyl)benzonitrile] here?
Answer: Its IC50 is 1000 to 10000 nM.

Question: How did the IC50 turn out when `C[C@@H]1CN(c2ncc(-c3ccc4c(=O)n(C)n(Cc5ccccc5OC(F)F)c4c3)cn2)CCN1C(=O)[C@@H]1COC(C)(C)O1` [Example 38* Step 1, 1-(2-(Difluoromethoxy)benzyl)-6-(2-((R)-4-((S)-2,2-dimethyl-1,3-dioxolane-4-carbonyl)-3-methylpiperazin-1-yl)pyrimidin-5-yl)-2-methyl-1H-indazol-3(2H)-one] was run?
Answer: Its IC50 is under 1000 nM.

Question: `C[C@@H]1CN(c2ncc(-c3ccc4c(=O)n(C)n(Cc5ccccc5OC(F)F)c4c3)cn2)CCN1C(=O)[C@@H](O)CO` [Example 38, 1-(2-(Difluoromethoxy)benzyl)-6-(2-((R)-4-((S)-2,3-dihydroxypropanoyl)-3-methylpiperazin-1-yl)pyrimidin-5-yl)-2-methyl-1H-indazol-3(2H)-one] was tested. Which IC50 did it give?
Answer: Its IC50 is under 1000 nM.

Question: `C[C@@H]1CN(c2ncc(-c3ccc4c(=O)n(C)n(Cc5ccccc5OC(F)F)c4c3)cn2)CCN1C(=O)[C@H](O)CO` [Example 39, 1-(2-(Difluoromethoxy)benzyl)-6-(2-((R)-4-((R)-2,3-dihydroxypropanoyl)-3-methylpiperazin-1-yl)pyrimidin-5-yl)-2-methyl-1H-indazol-3(2H)-one] was tested. Which IC50 did it give?
Answer: Its IC50 is under 1000 nM.

Question: How did the IC50 turn out when `Cn1c(=O)c2cc(F)c(-c3cnc(C(C)(C)O)nc3)cc2n1Cc1ccccc1OC(F)F` [Example 40, 1-(2-(Difluoromethoxy)benzyl)-5-fluoro-6-(2-(2-hydroxypropan-2-yl)pyrimidin-5-yl)-2-methyl-1H-indazol-3(2H)-one] was run?
Answer: The IC50 was 1000 to 10000 nM.

Question: For `Cc1ccc(OC(F)F)c(Cn2c3cc(-c4cnc(N5CCN(S(C)(=O)=O)[C@@H](C)C5)nc4)ccc3c(=O)n2C)c1` [Example 41, (S)-1-(2-(Difluoromethoxy)-5-methylbenzyl)-2-methyl-6-(2-(3-methyl-4-(methylsulfonyl)piperazin-1-yl)pyrimidin-5-yl)-1H-indazol-3(2H)-one], which IC50 is on record?
Answer: The IC50 was under 1000 nM.

Question: `Cn1c(=O)c2ccc(-c3cnc(C(C)(C)O)nc3)cc2n1Cc1cc(NCc2ccccn2)ccc1Cl` [Example 42, 1-(2-Chloro-5-((pyridin-2-ylmethyl)amino)benzyl)-6-(2-(2-hydroxypropan-2-yl)pyrimidin-5-yl)-2-methyl-1H-indazol-3(2H)-one] was tested. Which IC50 did it give?
Answer: The IC50 was 1000 to 10000 nM.

Question: For `Cn1c(=O)c2ccc(-c3cnc(C(C)(C)O)nc3)cc2n1Cc1cc(NCc2cc[nH]n2)ccc1Cl` [Example 43], which IC50 is on record?
Answer: Its IC50 is 1000 to 10000 nM.

Question: For `Cn1c(=O)c2ccc(-c3cnc(C(C)(C)O)nc3)cc2n1Cc1cc(NC2CCCc3c[nH]nc32)ccc1Cl` (stereo not drawn) [Example 44, 1-(2-Chloro-5-((4,5,6,7-tetrahydro-1H-indazol-7-yl)amino)benzyl)-6-(2-(2-hydroxypropan-2-yl)pyrimidin-5-yl)-2-methyl-1H-indazol-3(2H)-one], which IC50 is on record?
Answer: The IC50 was under 1000 nM.

Question: How did the IC50 turn out when `Cc1ccc(OC(F)F)c(Cn2c3c(F)c(-c4cnc(C(C)(C)O)nc4C)ccc3c(=O)n2C)c1` [Example 45, 1-(2-(Difluoromethoxy)-5-methylbenzyl)-7-fluoro-6-(2-(2-hydroxypropan-2-yl)-4-methylpyrimidin-5-yl)-2-methyl-1H-indazol-3(2H)-one] was run?
Answer: The IC50 was under 1000 nM.

Question: With `C[C@@H]1CN(c2ncc(-c3c(F)cc4c(=O)n(C)n(Cc5ccccc5OC(F)F)c4c3F)cn2)CCN1C(=O)CO` [Example 46] as the compound, how does the IC50 read?
Answer: The IC50 was under 1000 nM.

Question: For `COc1cc2c(=O)n(C)n(Cc3ccccc3OC(F)F)c2cc1-c1cnc(N2CCN(C(=O)CO)[C@H](C)C2)nc1` [Example 47, (R)-1-(2-(Difluoromethoxy)benzyl)-6-(2-(4-(2-hydroxyacetyl)-3-methylpiperazin-1-yl)pyrimidin-5-yl)-5-methoxy-2-methyl-1H-indazol-3(2H)-one], which IC50 is on record?
Answer: The IC50 was 1000 to 10000 nM.

Question: `CC(=O)N1CCN(c2ncc(-c3ccc4c(=O)n(C)n(Cc5c(CO)cccc5OC(F)F)c4c3)cn2)C[C@H]1C` [Example 48, (R)-6-(2-(4-Acetyl-3-methylpiperazin-1-yl)pyrimidin-5-yl)-1-(2-(difluoromethoxy)-6-(hydroxymethyl)benzyl)-2-methyl-1H-indazol-3(2H)-one] was tested. Which IC50 did it give?
Answer: Its IC50 is under 1000 nM.

Question: For `CC(=O)N1CCN(c2ncc(-c3ccc4c(=O)n(C)n(Cc5c(CC#N)cccc5OC(F)F)c4c3)cn2)C[C@H]1C` [Example 49, (R)-2-(2-((6-(2-(4-Acetyl-3-methylpiperazin-1-yl)pyrimidin-5-yl)-2-methyl-3-oxo-2,3-dihydro-1H-indazol-1-yl)methyl)-3-(difluoromethoxy)phenyl)acetonitrile], which IC50 is on record?
Answer: Its IC50 is under 1000 nM.

Question: For `C[C@@H]1CN(c2ncc(-c3ccc4c(=O)n(C)n(Cc5ccccc5OC(F)F)c4c3)cn2)CCN1C(=O)[C@H](O)CC(=O)O` [Example 50, (R)-4-((R)-4-(5-(1-(2-(Difluoromethoxy)benzyl)-2-methyl-3-oxo-2,3-dihydro-1H-indazol-6-yl)pyrimidin-2-yl)-2-methylpiperazin-1-yl)-3-hydroxy-4-oxobutanoic acid], which IC50 is on record?
Answer: Its IC50 is under 1000 nM.

Question: For `C[C@@H]1CN(c2ncc(-c3ccc4c(=O)n(C)n(Cc5ccccc5OC(F)F)c4c3)cn2)CCN1C(=O)[C@@H](O)CC(=O)O` [Example 51, (S)-4-((R)-4-(5-(1-(2-(Difluoromethoxy)benzyl)-2-methyl-3-oxo-2,3-dihydro-1H-indazol-6-yl)pyrimidin-2-yl)-2-methylpiperazin-1-yl)-3-hydroxy-4-oxobutanoic acid], which IC50 is on record?
Answer: The IC50 was under 1000 nM.

Question: With `CC(=O)N1CCN(c2ncc(-c3ccc4c(=O)n(C)n(Cc5cccc6c5SCC(=O)NC6)c4c3)cn2)C[C@H]1C` [Example 52, (R)-9-((6-(2-(4-Acetyl-3-methylpiperazin-1-yl)pyrimidin-5-yl)-2-methyl-3-oxo-2,3-dihydro-1H-indazol-1-yl)methyl)-4,5-dihydrobenzo[f][1,4]thiazepin-3(2H)-one] as the compound, how does the IC50 read?
Answer: Its IC50 is 1000 to 10000 nM.

Question: `Cn1c(=O)c2ccc(-c3cnc(C(C)(C)O)nc3)cc2n1Cc1cc(NCc2cccnc2)ccc1Cl` [Example 53, 1-(2-Chloro-5-((pyridin-3-ylmethyl)amino)benzyl)-6-(2-(2-hydroxypropan-2-yl)pyrimidin-5-yl)-2-methyl-1H-indazol-3(2H)-one] was tested. Which IC50 did it give?
Answer: Its IC50 is 1000 to 10000 nM.

Question: How did the IC50 turn out when `Cc1ccc(CO)cc1Cn1c2cc(-c3cnc(N4CCOCC4)nc3)ccc2c(=O)n1C` [Example 56, 1-(5-(Hydroxymethyl)-2-methylbenzyl)-2-methyl-6-(2-morpholinopyrimidin-5-yl)-1H-indazol-3(2H)-one] was run?
Answer: The IC50 was 1000 to 10000 nM.

Question: Which IC50 does the source give for `[2H]C([2H])([2H])n1c(=O)c2ccc(-c3cnc(N4CCN5C(=O)OC[C@H]5C4)nc3)cc2n1Cc1cc(C)ccc1OC(F)F` [Example 57, (R)-7-(5-(1-(2-(Difluoromethoxy)-5-methylbenzyl)-2-(methyl-d3)-3-oxo-2,3-dihydro-1H-indazol-6-yl)pyrimidin-2-yl)hexahydro-3H-oxazolo[3,4-a]pyrazin-3-one] here?
Answer: Its IC50 is under 1000 nM.

Question: How did the IC50 turn out when `C[C@@H]1CN(c2ncc(-c3cc4c(cc3F)c(=O)n(C)n4Cc3ccccc3OC(F)F)cn2)CCN1C(=O)CO` [Example 59, (R)-1-(2-(Difluoromethoxy)benzyl)-5-fluoro-6-(2-(4-(2-hydroxyacetyl)-3-methylpiperazin-1-yl)pyrimidin-5-yl)-2-methyl-1H-indazol-3(2H)-one] was run?
Answer: The IC50 was under 1000 nM.

Question: With `C[C@@H]1CN(c2ccc(-c3cc4c(cc3F)c(=O)n(C)n4Cc3ccccc3OC(F)F)cn2)CCN1C(=O)CO` [Example 60, (R)-1-(2-(Difluoromethoxy)benzyl)-5-fluoro-6-(6-(4-(2-hydroxyacetyl)-3-methylpiperazin-1-yl)pyridin-3-yl)-2-methyl-1H-indazol-3(2H)-one] as the compound, how does the IC50 read?
Answer: The IC50 was under 1000 nM.

same assay, conditions: read-out: TNF IC50

Question: For `C[C@H](O)CNc1ccc(Cl)c(Cn2c3cc(-c4cnc(C(C)(C)O)nc4)ccc3c(=O)n2C)c1` [Example 30.1], which IC50 is on record?
Answer: The IC50 was 1000 to 10000 nM.

Question: Which IC50 does the source give for `C[C@@H](O)CNc1ccc(Cl)c(Cn2c3cc(-c4cnc(C(C)(C)O)nc4)ccc3c(=O)n2C)c1` [Example 30.2] here?
Answer: Its IC50 is 1000 to 10000 nM.
